Point of comparison: `O=[N+]([O-])c1cc(Cn2cncn2)ccc1Cl`, melting point 98.9 °C. Against it:
- CC#CC(O)(C(=O)OC)c1ccccc1 (stereo not given) — lower, 64 to 65 °C
- Oc1ccc(Nc2nc(Cl)nc(NCc3ccco3)n2)cc1 — higher, 188 to 190 °C
- N#Cc1ccc(O)c(Cc2cc(F)cc(Cc3cc(C#N)ccc3O)c2O)c1 — higher, 222 °C
- COc1ccc(CC2NCCCC2C(C)O)cc1 (stereo not given) — higher, > 300 °C
- CNC(=S)C1=CC2(CCOCC2)Oc2ccc([N+](=O)[O-])cc21 — higher, 223 to 225 °C
- O=CN1CC2Oc3ccccc3OC2C1 (stereo not given) — higher, 207 to 208 °C
- CCCCOC(=O)c1ccc(CN2CCCN3CCCC32)cc1 (stereo not given) — lower, 64 to 67 °C
- COc1ccc(C=C2SCCS2)cc1OC — lower, 74 to 75 °C
- C1=C(c2cccs2)CCN(CCCSc2ccncc2)C1 — lower, 86 to 87 °C
- CC(C)(C)c1ccc(CCCCC(O)C2CCCCC2)cc1NC(=O)CC1c2ccccc2Oc2ccccc21 (stereo not given) — higher, 147 to 148 °C
- C[C@@H]1Cc2ccsc2[C@H](C)N1CCCCNS(=O)(=O)c1ccc(NS(C)(=O)=O)cc1 (relative stereo) — higher, 134 to 136 °C
- Nc1[nH]c(=S)nc2nc[nH]c12 — higher, 196 to 198 °C
- c1ccc2c(c1)ccc1nn[nH]c12 — higher, 245 to 247 °C
- Cc1cc(Oc2cccc(C(F)(F)F)c2)nn1C(=O)Nc1ccc(F)c(F)c1F — higher, 102 to 104 °C
- CCCc1cc(C(O)(CC)CC)ccc1-c1cc(CCc2ccc(CO)c(CO)c2)ccc1C — lower, 76 °C
- COc1cc(CC(=O)NCCCc2ccc(C)c(C)c2)ccc1OCCNCCN — higher, 119 to 120 °C
- O=C(Nc1ccc(Oc2cc(Cl)ncn2)cc1)Nc1ccc(Cl)c(C(F)(F)F)c1 — higher, 180 to 181 °C
- COc1cccc(C23CCC(=O)C(C2)NC3=O)c1 (stereo not given) — higher, 138 to 139 °C
- O=C(Nc1ccccc1)C1CSc2sccc2C1=O (stereo not given) — higher, 155 to 158 °C
- COc1ccc(C(=O)N2CCN(C(=O)C3=Cc4cc(OC)c(OC)cc4CC3)CC2)cc1OC — higher, 190 to 191 °C
- CCNc1nc(C)c(-c2ccnc(Nc3ccc(N4CCSCC4)cc3)n2)s1 — higher, 207 to 209 °C
- CC12CCC3c4ccc(OCc5ccccc5)cc4CCC3C1CCC2=O (stereo not given) — higher, 126 to 127 °C
- Cc1ccccc1S(=O)(=O)NC(=O)c1ccc2c(ccn2Cc2cccc([N+](=O)[O-])c2)c1 — higher, 208 to 210 °C
- CCc1nsc(N=C(Cl)N(C)C)c1C#N — lower, 95 to 97 °C
- CCCCCC(C)N(Cc1ccc(CC(C)(C)C)s1)C(Nc1ccc(OC)cc1OC)=C1C(=O)OC(C)(C)OC1=O (stereo not given) — higher, 152 to 153 °C
- CNC(=S)NS(=O)(=O)c1cc2c(cc1OC)OC(C)(C)C(NC(=O)c1cc(Cl)ccc1OC)C2 (stereo not given) — higher, 234 to 235 °C
- Cc1c(-c2c(C)c3ccccc3n2S(=O)(=O)c2ccccc2)n(S(=O)(=O)c2ccccc2)c2ccccc12 — higher, 224 °C
- N#Cc1ccc(-c2ccc(-c3ccn([C@H](CC(=O)O)C(=O)N[C@H](CO)Cc4ccccc4)c3)cc2)cc1 — higher, 189 to 192 °C
- CCOc1nc(O)cc(CCl)n1 — higher, 159 to 161 °C
- NC(=O)c1ccccc1N=C(NC(=O)c1ccccc1)NC(=O)c1ccccc1 — higher, 276 to 278 °C
- Fc1ccc(-c2ccc(C3OCCO3)cc2)cc1F — lower, 89 to 91 °C
- COc1ccc(-c2nc(C)cc(OCCN3CCN(C(c4ccccc4)c4ccccc4)CC3)n2)cc1 — higher, 132 to 133 °C
- O=C(O)c1cccc(C(=O)C=Cc2ccc(OCc3ccccc3)cc2)c1O — higher, 174 to 175 °C
- CO[C@]1(c2cccc(OCc3ccc4c(ccc(=O)n4C)c3)c2)CCOC[C@H]1O (racemic) — lower, 62 to 66 °C
- CCCCc1ncc(/C=C(\Cc2cccs2)C(=O)O)n1Cc1ccc(OC)c(C)c1 — higher, 140 to 141 °C
- COc1cc2c(cc1O)CCN(Cc1cccc(Oc3ccccc3)c1)C2 — higher, 139 to 140 °C
- CS(=O)(=O)CCNC(=O)c1cccc(-c2ccc3c(c2)C(Oc2ccc(Cl)cc2Cl)CC3)c1 (stereo not given) — higher, 140 to 143 °C
- COc1ccc(CNc2nc(N3CCC[C@H]3CO)ncc2C(=O)Nc2cncnc2)cc1Cl — higher, 192 to 195 °C
- CCCCCC(CNC(=O)Nc1cc(C(N)=O)ccc1C(C)(C)C)c1ccc(OC)cc1OC (stereo not given) — higher, 223 to 224 °C
- CCCCCCCCCCOc1cc(O)cc(C(=O)OC)c1 — lower, 92 to 94 °C
- CCCCC1(CCCC)CS(=O)(=O)c2ccc(N(C)C)cc2C(c2ccc(OCc3ccc(CN(CC(=O)O)CC(=O)O)cc3)cc2)C1O (stereo not given) — higher, 175 °C
- O=C(O)c1cn2c3c(c(F)c(F)cc3c1=O)OCC2 — higher, > 300 °C
- Cc1oc(-c2ccccc2)nc1COc1ccc(COC(=O)Cc2cccc(OCc3ccc(OCc4nc(-c5ccccc5)oc4C)cc3)c2)cc1 — lower, 90 to 91 °C
- COC(=O)c1ccc(C2=N[C@H]3CCCC[C@H]3c3cc(OC)c(OC)cc32)cc1 (racemic) — higher, 122 °C
- CC(C)Cc1ccc(N)cc1C#N — lower, 68 °C
- O=C(Nc1ccc(C(F)(F)F)cc1)c1cc(-c2ccc(F)cc2F)ccc1O — higher, 227 to 228 °C
- COc1ccccc1I — lower, 44.5 to 46.5 °C
- CC1(C)CC(=O)C(F)C(C)(C)C1 (stereo not given) — lower, 27 to 31 °C
- CCCc1cc(=O)on1C(=O)c1ccc(Cl)cc1Cl — lower, 63 to 65.5 °C
- CCc1nccn1CC(=O)c1ccc(-c2ccc(N3C[C@H](Cn4ccnn4)OC3=O)cc2F)cn1 — lower, 77 to 79 °C
- O=C(O)CN(CCc1ccccc1)C(=O)CCc1nc2c(F)c(F)cc(F)c2s1 — higher, 139 to 140 °C
- COc1cc(OC)nc(NC#N)n1 — higher, 202 °C
- NN1C(=O)c2ccc(Cl)cc2C1=O — higher, 172 to 175 °C
- CCCCCCCCOc1ccc(CP(=O)(OC)OC)c2c(CP(=O)(OC)OC)cccc12 — lower, 51 to 52 °C
- COc1cc(C(=O)O)ccc1Cc1cn(C)c2ccc(CCNC(=O)N(C)C)cc12 — higher, 195 to 196 °C
- CC(C)(C)OC(=O)NNc1ccc(N2C(=O)C=CC2=O)cn1 — higher, 182 to 184 °C
- NC(=O)c1ccnn1-c1ccc(Oc2ccccc2)cc1 — higher, 142 to 144 °C
- CC(=O)c1ccc(-n2c(-c3sc(NC(=O)c4ccccc4)nc3-c3ccccc3)nc3ccccc3c2=O)cc1 — higher, 250 to 252 °C
- CC(=O)N1CCc2c1cc(C)c(S(=O)(=O)C[N+](=O)[O-])c2C — higher, 204 °C
- CCOc1ccc(-c2c(Cl)c(CN3C(=O)CCC3=O)nc3sc4c(c23)CCN(C(C)=O)C4)cc1 — higher, 260 to 262 °C
- CC(C)(C)OC(=O)NCC(CC(=O)O)c1ccc(Cl)cc1 (stereo not given) — higher, 139 to 141 °C
- Cc1ncc([N+](=O)[O-])n1CCN=[N+]=[N-] — lower, 51 to 51.5 °C
- COCC(C)Nc1cc2c(=O)n(NS(C)(=O)=O)c(=O)[nH]c2cc1[N+](=O)[O-] (stereo not given) — higher, 103 to 111 °C
- CCOC(=O)COc1ccc(C2=NNC(=O)NC2C)cc1 (stereo not given) — higher, 152 to 153 °C
- CN1C(=O)C(F)N=C(c2ccccc2Cl)c2ccc(Cl)cc21 (stereo not given) — higher, 204 to 205 °C
- CN(C1CCN(Cc2ccsc2)CC1)S(=O)(=O)c1ccc(Nc2nccc(Nc3ccc(F)cc3)n2)cc1 — higher, 173 to 174 °C
- O=C(Nc1ccc(C(=O)N2CCCCc3sccc32)cc1)c1ccc(Cl)c(Cl)c1 — higher, 154 to 160 °C
- CC(C)(C)c1ccc(C(=O)CCCN2CCC(C3(O)c4ccccc4CCc4ccccc43)CC2)cc1 — higher, 132 to 134 °C
- CC(Cc1nc(-c2ccccc2)cc2ccccc12)C(=O)O (stereo not given) — higher, 184 °C
- Oc1cccc2c1c1cccc(Cl)c1n2Cc1ccc(F)cc1 — higher, 142 to 145 °C
- CN1CCC(O)(c2ccccc2N)CC1 — higher, 135 to 136 °C
- CCCCCCCCCCCCCCCCn1cccc1C1=CC(=O)c2ccccc2C1=O — lower, 56 to 57 °C
- Cc1cccc(-c2nc3ccc(Cl)nn3c2-c2ccnc(N)n2)c1 — higher, 237 to 238 °C
- Nc1cc2[nH]c(=O)oc2cc1NC(=O)C(=O)N1CCC(Cc2ccccc2)CC1 — higher, 296 °C
- COC(=CCl)C1(O)CCC2C3CCC4=CC(=O)CCC4(C)C3=CCC21C (stereo not given) — higher, 197 to 199 °C
- O=[N+]([O-])c1ccc2ncccc2c1O — higher, 245 °C
- NC(=O)NN=Cc1ccc(OC2CCCCC2)cc1 — higher, 215 to 217 °C
- CC(N)c1nnc(Cc2cccc3ccccc23)[nH]c1=O (stereo not given) — higher, 180 °C
- COc1ccc(N2CCN(Cc3c[nH]c4ncccc34)CC2)cc1 — higher, 213 to 214 °C
- COc1cccc(Sc2cccc(N)c2C#N)c1 — lower, 79 to 81 °C
- Cn1c(N=C=O)c(-c2ccccc2)c2cc([N+](=O)[O-])ccc21 — higher, > 250 °C
- O=[N+]([O-])c1ccccc1-c1cnoc1 — lower, 51 to 54 °C
- CNC(=O)N1CC(Oc2ccccc2Cl)C1 — higher, 130 to 132 °C
- COCCOCn1c2ccccc2c2c(C)c(C(=O)OC)sc21 — lower, 85.4 to 86 °C
- CCN1CC(NC(=O)c2ccc(OCC=C(C)CCC=C(C)C)cc2)CN1CC — lower, 95.5 to 97 °C
- COc1cc(Cl)c2nc(Cl)nc(O)c2c1OC — higher, 252 to 253 °C
- CN(C)CCOC(=O)c1cccc(Nc2cc(C(C)(C)C)c(O)c(C(C)(C)C)c2)c1 — higher, 119 to 120 °C
- Nc1ccc(C(=O)N2CCOCC2)cc1[N+](=O)[O-] — higher, 184 to 189 °C
- CC(=O)NCCCC(=O)N1CCCC(=O)c2ccc(Cl)cc2CCC1=O — higher, 135 to 136 °C
- COC(=O)C(C(=O)OC)=C(C)N — lower, 81 to 82 °C
- COc1cc(OC)nc(Oc2cccc(Cl)c2NS(C)(=O)=O)n1 — higher, 147 to 148 °C
- CC(C)CC(=O)C(=O)OCc1ccccc1 — not separable, 98 to 100 °C
- NC(=O)[C@H]1CN(c2ccc(C3=NNC(=O)CS3)c(F)c2)C(=O)O1 — higher, 249 to 251 °C
- C#CCOc1nnc(Cl)c2ccccc12 — higher, 134 to 136 °C
- CCCC(=O)n1ccc(-c2ccc(C(=O)N3Cc4cccn4Cc4ccccc43)cc2)n1 — higher, 105 to 110 °C
- CCC(CC)OC(=O)c1ccc(C(=O)NS(=O)(=O)c2ccccc2)cn1 — higher, 182 to 183 °C
- CCOC(=O)c1cn(C2CC2)c2c(C#N)c(N3C[C@@H]4CCCN[C@@H]4C3)c(F)cc2c1=O — higher, 209 to 210 °C
- O=C(NC(=Cc1ccccc1)c1cccs1)C(F)(F)F — higher, 158 °C
- ClCCCCCCOc1ccc(C2=C(c3ccccc3)CCCc3cc(OC4CCCCO4)ccc32)cc1 (stereo not given) — lower, 84 to 86 °C

From a melting point compilation (Tetko et al.; mined from patent text by program, amines drawn as free bases though some values may be those of a salt)
